Reference: patent US11691949B2, “Quinoline sulfonamide compounds and their use as antibacterial agents” (OTAGO INNOVATION LIMITED, priority 2017, dated 2023)
Values after ≈ are worked out from the molar mass of the structure shown. Where two headings read alike, the source gives them in different places.

Columns and labels:
Format in all cases: cell-based
E. coli ATCC 10596 = assay: MIC by broth microdilution, E. coli; settings: Escherichia coli, read-out: E. coli ATCC 10536 MIC
Description: (§1) Antibacterial susceptibility testing was performed in triplicate (biological) by measuring minimum inhibitory concentrations (MICs) by broth microdilution in 96-well flat bottom microtiter plates (ThermoFisher Scientific, New Zealand). S. uberis ATCC 19436, S. aureus ATCC 6538, or E. coli ATCC 10596 cells grown overnight were diluted to an OD600 of approximately 0.025, so that the final concentration of cells in the MIC assay was approximately 5×10^5 cfu/mL in media as follows: S. uberis; Todd Hewitt Broth (THB), S. aureus; Tryptic Soy Broth (TSB) and Cation Adjusted Muller Hinton Broth (CAMHB), and E. coli; Lysogeny Borth (LB) and CAMHB, before being dispensed into microtiter wells. As required additional sterile Zinc Sulphate (Heptahydrate) was supplemented into the media, so the final concentration was 50 μM. Test compounds were added to starting wells and two-fold serial dilutions were undertaken to generate a range of inhibitor concentrations at a final volume of 200 μl. Media and test compound-free (untreated) controls were included in each microtiter plate in triplicate. After 24 h incubation at 37° C. and 200 rpm, the OD600 of wells were read using a Varioskan Flash plate reader (ThermoFisher Scientific, New Zealand). The MIC was reported as the lowest concentration of the test compound for which no growth occurred, as determined by OD600 readings. The minimum bactericidal concentration (MBC) was determined using the Miles-Misra drop-plate method to measure the viability of cells in response to test compound challenge.

S. aureus ATCC 6538 = assay: MIC by broth microdilution, S. aureus; settings: Staphylococcus aureus, read-out: S. aureus ATCC 6538 MIC
Description: as §1

S. uberis ATCC 19436 = assay: MIC by broth microdilution, S. uberis; settings: Streptococcus uberis, read-out: S. uberis ATCC 19436 MIC
Description: as §1

[1] = ATCC 10536 / ATCC 10596, No Zinc
[2] = ATCC 10536 / ATCC 10596, Zinc (50 μM)

| MIC (E. coli ATCC 10596; [1]) [µg/mL] | MIC (E. coli ATCC 10596; [2]) [µg/mL] | MIC (S. aureus ATCC 6538; ATCC6538, No Zinc) [µg/mL] | MIC (S. aureus ATCC 6538; ATCC6538, Zinc (50 μM)) [µg/mL] | MIC (S. uberis ATCC 19436; ATCC19436, No Zinc) [µg/mL] | MIC (S. uberis ATCC 19436; ATCC19436, Zinc (50 μM)) [µg/mL] | Structure (SMILES) |
| --- | --- | --- | --- | --- | --- | --- |
| 256 (≈ 602 µM) | > 256 | 256 (≈ 602 µM) | > 256 | 128 (≈ 301 µM) | < 0.125 | CN(C)Cc1ccc2cccc(NS(=O)(=O)c3cccc(OC(F)(F)F)c3)c2n1 [ZDR085, N-(2-((Dimethylamino)methyl)quinolin-8-yl)-3-(trifluoromethoxy)benzenesulfonamide] |
| 128 (≈ 304 µM) | 256 (≈ 607 µM) | 64 (≈ 152 µM) | > 256 | 64 (≈ 152 µM) | 0.25 (≈ 0.593 µM) | O=S(=O)(Nc1cccc2ccc(CNC3CC3)nc12)c1ccc(C(F)(F)F)cc1 [ZDR086, N-(2-((Cyclopropylamino)methyl)quinolin-8-yl)-4-(trifluoromethyl)benzenesulfonamide] |
| 256 (≈ 588 µM) | > 256 | 128 (≈ 294 µM) | > 256 | 256 (≈ 588 µM) | 0.25 (≈ 0.574 µM) | O=S(=O)(Nc1cccc2ccc(CNCC3CC3)nc12)c1ccc(C(F)(F)F)cc1 [ZDR087, N-(2-(((Cyclopropylmethyl)amino)methyl)quinolin-8-yl)-4-(trifluoromethyl)benzenesulfonamide] |
| > 256 | > 256 | > 256 | > 256 | > 256 | 0.0625 (≈ 0.134 µM) | O=S(=O)(Nc1cccc2ccc(CN3CCSCC3)nc12)c1ccc(C(F)(F)F)cc1 [ZDR088, N-(2-(Thiomorpholinomethyl)quinolin-8-yl)-4-(trifluoromethyl)benzenesulfonamide] |
| > 256 | > 256 | 256 (≈ 551 µM) | 128 (≈ 276 µM) | 64 (≈ 138 µM) | 0.5 (≈ 1.08 µM) | CN1CCN(Cc2ccc3cccc(NS(=O)(=O)c4ccc(C(F)(F)F)cc4)c3n2)CC1 [ZDR089, N-(2-((4-Methylpiperazin-1-yl)methyl)quinolin-8-yl)-4-(trifluoromethyl)benzenesulfonamide] |
| 256 (≈ 562 µM) | > 256 | 64 (≈ 141 µM) | 128 (≈ 281 µM) | 64 (≈ 141 µM) | 16 (≈ 35.1 µM) | O=S(=O)(Nc1cccc2ccc(CNCC(O)CO)nc12)c1ccc(C(F)(F)F)cc1 (stereo not drawn) [ZDR093, N-(2-(((2,3-Dihydroxypropyl)amino)methyl)quinolin-8-yl)-4-(trifluoromethyl)benzenesulfonamide] |
| 256 (≈ 545 µM) | 256 (≈ 545 µM) | 62 (≈ 132 µM) | 32 (≈ 68.2 µM) | 32 (≈ 68.2 µM) | 4 (≈ 8.52 µM) | O=S(=O)(Nc1cccc2ccc(CN(CCO)CCO)nc12)c1ccc(C(F)(F)F)cc1 [ZDR094, N-(2-((Bis(2-hydroxyethyl)amino)methyl)quinolin-8-yl)-4-(trifluoromethyl)benzenesulfonamide] |
| > 256 | > 256 | > 256 | > 256 | 64 (≈ 114 µM) | 4 (≈ 7.1 µM) | O=S(=O)(Nc1cccc2ccc(CN(Cc3ccccn3)Cc3ccccn3)nc12)c1ccc(C(F)(F)F)cc1 [ZDR096, N-(2-((Bis(pyridin-2-ylmethyl)amino)methyl)quinolin-8-yl)-4-(trifluoromethyl)benzenesulfonamide] |
| > 256 | 256 (≈ 607 µM) | > 256 | > 256 | > 256 | 0.0625 (≈ 0.148 µM) | C=CCNCc1ccc2cccc(NS(=O)(=O)c3ccc(C(F)(F)F)cc3)c2n1 [ZDR097, N-(2-((Allylamino)methyl)quinolin-8-yl)-4-(trifluoromethyl)benzenesulfonamide] |
| > 256 | > 256 | 64 (≈ 153 µM) | > 256 | 64 (≈ 153 µM) | 0.125 (≈ 0.298 µM) | C#CCNCc1ccc2cccc(NS(=O)(=O)c3ccc(C(F)(F)F)cc3)c2n1 [ZDR098, N-(2-((Prop-2-yn-1-ylamino)methyl)quinolin-8-yl)-4-(trifluoromethyl)benzenesulfonamide] |
| > 256 | 256 (≈ 599 µM) | 64 (≈ 150 µM) | > 256 | 64 (≈ 150 µM) | 0.25 (≈ 0.585 µM) | O=S(=O)(Nc1cccc2ccc(CNCCF)nc12)c1ccc(C(F)(F)F)cc1 [ZDR099, N-(2-(((2-Fluoroethyl)amino)methyl)quinolin-8-yl)-4-(trifluoromethyl)benzenesulfonamide] |
